Laboratory results from patent publication US8012971B2, “Therapeutic agent for chronic obstructive pulmonary disease” (Dainippon Sumitomo Pharma Co., Ltd., priority 2005, dated 2011).

System: Guinea Pig Chronic Obstructive Pulmonary Disease (COPD) Model
Test: Histological investigations of lung in guinea pig COPD model
Type: in vivo
Protocol: An evaluation was carried out as follows according to a report of Kosuke MORIZUMI, Junichi FUCHIGAMI et al., 2002, The 75th Annual Meeting of the Japanese Pharmacological Society (2002) Abstract No. P-259, “Study of a chronic obstructive pulmonary disease-Effects of theophylline on respiratory function and lung function of guinea pigs in an exposure of cigarette smoke.”
Male Hartley strain guinea pigs (purchased from Japan SLC, Inc.) were taken in a cigarette exposure holder (RMH-TUBES, manufactured by Muenster Ltd.) to secure them to an exposure chamber (Flow-past type nose-only inhalation chamber, manufactured by Muenster Ltd.), and allowed to inhale cigarette smoke (Hi-Lite, manufactured by Japan Tobacco Inc.) for 60 minutes per day for 5 days in a week, totally 4 weeks using a smoking exposure equipment (Hamburg II, manufactured by Borgwaldt Technik), while the exposure was carried out for 4 days in the 4th week. • (2) Drug Administrations
Each 0.5% MC suspension of a test drug was orally administered daily in 5 ml/weight (kg) once a day for 25 days from the first day of the exposure. To a sham-exposure group and a control group was orally administered a 0.5% MC suspension in a similar manner. Any oral administrations were carried out 0.5 to 1 hours before exposures on a cigarette-smoke-exposure day or after measurements when measuring respiratory functions. A drug was not administered on the day for measurement of respiratory functions after finishing the 4th week of the exposure. • (3) Measurements of Airway Resistance
After collection of BALF, trachea and lung were isolated. The ligation site of the left lung was opened, injected neutral formalin buffer into trachea, bronchi and lung at the pressure of 20 cm H2O via cannula fixed on the side of the lung, and the lung tissue was extended to be fixed. According to a conventional method, tissue section samples were produced using posterior lobe of the left lung and hematoxylin-eosin (HE) stain was carried out. Any other lung tissues were stored in neutral formalin buffers. Drug efficacies of the produced tissue samples were evaluated by scoring tissue changes under the microscope. The criteria of scores were shown as follows: −: none, ±: minimal, +: mild, ++: moderate, +++: severe. Each quantification was calculated as 0, 1, 2, 3, 4.

[1] = 10 mg/kg/day for 25 days, 8 animals
[2] = 30 mg/kg/day for 25 days, 8 animals

## CNC(=O)NCCn1c(-c2ccc(N3CCOCC3)cc2)csc1=Nc1cccc(F)c1 [SMP-028, N-{2-[2-[(3-fluorophenyl)imino]-4-(4-morpholinophenyl)-thiazol-3(2H)-yl]ethyl}-N′-methylurea]
[1]
  Number of animals with grade ± (minimal): D. Accumulation, foamy/macrophage-like cell, alveolus: 3
  Number of animals with grade ± (minimal): E. Cellular infiltration, neutrophil, alveolus: 0
  Number of animals with grade − (none): A. Hyperplasia, epithelial cell, bronchus: 7
  Number of animals with grade − (none): B. Cellular exudation, neutrophil/eosinophil, lumen, bronchiole: 7
  Number of animals with grade − (none): C. Thickening, alveolar wall: 4
  Number of animals with grade − (none): D. Accumulation, foamy/macrophage-like cell, alveolus: 3
  Number of animals with grade − (none): E. Cellular infiltration, neutrophil, alveolus: 8
[2]
  Number of animals with grade + (mild): A. Hyperplasia, epithelial cell, bronchus: 0
  Number of animals with grade + (mild): B. Cellular exudation, neutrophil/eosinophil, lumen, bronchiole: 0
  Number of animals with grade + (mild): C. Thickening, alveolar wall: 1
  Number of animals with grade + (mild): D. Accumulation, foamy/macrophage-like cell, alveolus: 2
  Number of animals with grade + (mild): E. Cellular infiltration, neutrophil, alveolus: 0
  Number of animals with grade ++ (moderate): A. Hyperplasia, epithelial cell, bronchus: 0
  Number of animals with grade ++ (moderate): B. Cellular exudation, neutrophil/eosinophil, lumen, bronchiole: 0
  Number of animals with grade ++ (moderate): C. Thickening, alveolar wall: 0
  Number of animals with grade ++ (moderate): D. Accumulation, foamy/macrophage-like cell, alveolus: 0
  Number of animals with grade ++ (moderate): E. Cellular infiltration, neutrophil, alveolus: 0
  Number of animals with grade +++ (severe): A. Hyperplasia, epithelial cell, bronchus: 0
  Number of animals with grade +++ (severe): B. Cellular exudation, neutrophil/eosinophil, lumen, bronchiole: 0
  Number of animals with grade +++ (severe): C. Thickening, alveolar wall: 0
  Number of animals with grade +++ (severe): D. Accumulation, foamy/macrophage-like cell, alveolus: 0
  Number of animals with grade +++ (severe): E. Cellular infiltration, neutrophil, alveolus: 0
  Number of animals with grade ± (minimal): A. Hyperplasia, epithelial cell, bronchus: 0
  Number of animals with grade ± (minimal): B. Cellular exudation, neutrophil/eosinophil, lumen, bronchiole: 0
  Number of animals with grade ± (minimal): C. Thickening, alveolar wall: 2
  Number of animals with grade ± (minimal): D. Accumulation, foamy/macrophage-like cell, alveolus: 3
  Number of animals with grade ± (minimal): E. Cellular infiltration, neutrophil, alveolus: 0
  Number of animals with grade − (none): A. Hyperplasia, epithelial cell, bronchus: 8
  Number of animals with grade − (none): B. Cellular exudation, neutrophil/eosinophil, lumen, bronchiole: 8
  Number of animals with grade − (none): C. Thickening, alveolar wall: 5
  Number of animals with grade − (none): D. Accumulation, foamy/macrophage-like cell, alveolus: 3
  Number of animals with grade − (none): E. Cellular infiltration, neutrophil, alveolus: 8
Groups of 10 mg/kg and 30 mg/kg, result in words
  accumulation of foamy cells/macrophage-like cells within the alveoli and thickening of the alveolar wall: tended to be suppressed
Scores 0-4 for grades − to +++, result in words
  scored pathological findings (FIG. 2) relative to control group: tended to be dose-dependently suppressed
